Here are results for 20 compounds from patent US8404859B2, “Thiazole and thiophene compounds” (Hoffmann-La Roche Inc., priority 2011, dated 2013).

The target of one test is sLFA-1/ICAM-1 (Homo sapiens, UniProt P05107+P20701, DEL701-769). Nature of the test: sLFA-1/ICAM-1 ELISA. The note with it: sLFA-1 coated plates, 5dICAM-Fc binding, read-out: LFA/ICAM (IC50). As for the experimental part:
(§1) sLFA-1/ICAM-1 ELISA and Mac-1/ICAM-1 ELISA
(§2) Plates were coated with either 50 μl/well of 2.0 ug/ml solution of sLFA-1 or Mac-1 receptor in divalent cation buffer (1 mM MnCI2, 0.14M NaCl, 20 mM HEPES pH 7.2) at 4° C. overnight. Two hundred fifty μl of blocking buffer (1% BSA in divalent cation buffer) was added to each well 1 hour at 37° C. Plates were washed 3 times with wash buffer (TBS/0.05% Tween-20/1 mM MnCl2). The compound to be tested was solubilized in DMSO. A series of 1:3 dilutions were performed to achieve a concentration range of 0.45 nM-3 uM. Fifty μl of binding buffer (0.5% BSA in divalent cation buffer)/1% DMSO and 50 μl of the solutions to be tested were added to the appropriate wells and incubated for 1 hour. Fifty μl of 5dICAM-Fc (27 ng/ml) was added to the appropriate wells and 50 μl binding buffer was added to non-specific binding wells and incubated for 2 hours and washed. One hundred μl of 1:4000 HRP-goat anti-huIgG was added to each well and incubated for 1 hour and washed. One hundred μl of 1:1 TMB solution was added to each well and developed for 20 min at room temperature. Color development was stopped by adding 100 μl H3PO4 to each well. Absorbance was measured at 450 nm.

In a further test the target is Mac-1/ICAM-1 (Homo sapiens, UniProt P05107+P11215). Nature of the test: Mac-1/ICAM-1 ELISA. The following applies: Mac-1 receptor coated plates, 5dICAM-Fc binding. On the procedure:
as §1, §2
For orientation: ELISA stands for enzyme-linked immunosorbent assay.

sLFA-1/ICAM-1, sequence (P20701 26-1090 limits assumed, stated change not applied): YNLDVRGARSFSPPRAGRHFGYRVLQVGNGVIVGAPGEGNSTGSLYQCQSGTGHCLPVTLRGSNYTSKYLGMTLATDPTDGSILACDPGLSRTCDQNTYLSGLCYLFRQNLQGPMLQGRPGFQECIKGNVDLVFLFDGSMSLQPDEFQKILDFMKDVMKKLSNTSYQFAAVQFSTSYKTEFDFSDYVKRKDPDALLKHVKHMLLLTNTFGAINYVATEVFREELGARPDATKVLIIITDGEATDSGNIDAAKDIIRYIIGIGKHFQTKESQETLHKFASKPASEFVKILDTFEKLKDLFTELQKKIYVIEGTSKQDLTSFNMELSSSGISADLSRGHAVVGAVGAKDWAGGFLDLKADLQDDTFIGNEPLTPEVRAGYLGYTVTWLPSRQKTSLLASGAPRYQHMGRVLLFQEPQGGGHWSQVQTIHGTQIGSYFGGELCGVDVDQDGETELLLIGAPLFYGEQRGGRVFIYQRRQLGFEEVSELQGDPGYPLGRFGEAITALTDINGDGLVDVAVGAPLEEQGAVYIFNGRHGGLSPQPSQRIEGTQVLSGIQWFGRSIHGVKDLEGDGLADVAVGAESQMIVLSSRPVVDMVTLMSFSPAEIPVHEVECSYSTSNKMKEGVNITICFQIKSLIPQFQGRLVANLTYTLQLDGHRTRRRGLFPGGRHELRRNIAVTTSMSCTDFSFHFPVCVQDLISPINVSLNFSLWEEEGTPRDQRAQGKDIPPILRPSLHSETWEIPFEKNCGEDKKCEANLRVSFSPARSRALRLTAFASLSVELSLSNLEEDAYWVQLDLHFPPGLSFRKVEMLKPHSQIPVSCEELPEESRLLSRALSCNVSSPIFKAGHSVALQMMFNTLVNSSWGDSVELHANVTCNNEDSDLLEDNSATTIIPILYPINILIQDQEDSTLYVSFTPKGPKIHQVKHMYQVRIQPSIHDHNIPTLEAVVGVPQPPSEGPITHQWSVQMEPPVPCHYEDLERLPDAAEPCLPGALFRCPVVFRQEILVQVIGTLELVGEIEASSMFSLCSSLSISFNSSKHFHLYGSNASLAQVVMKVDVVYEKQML
sLFA-1/ICAM-1, sequence (P05107 23-700 limits assumed, stated change not applied): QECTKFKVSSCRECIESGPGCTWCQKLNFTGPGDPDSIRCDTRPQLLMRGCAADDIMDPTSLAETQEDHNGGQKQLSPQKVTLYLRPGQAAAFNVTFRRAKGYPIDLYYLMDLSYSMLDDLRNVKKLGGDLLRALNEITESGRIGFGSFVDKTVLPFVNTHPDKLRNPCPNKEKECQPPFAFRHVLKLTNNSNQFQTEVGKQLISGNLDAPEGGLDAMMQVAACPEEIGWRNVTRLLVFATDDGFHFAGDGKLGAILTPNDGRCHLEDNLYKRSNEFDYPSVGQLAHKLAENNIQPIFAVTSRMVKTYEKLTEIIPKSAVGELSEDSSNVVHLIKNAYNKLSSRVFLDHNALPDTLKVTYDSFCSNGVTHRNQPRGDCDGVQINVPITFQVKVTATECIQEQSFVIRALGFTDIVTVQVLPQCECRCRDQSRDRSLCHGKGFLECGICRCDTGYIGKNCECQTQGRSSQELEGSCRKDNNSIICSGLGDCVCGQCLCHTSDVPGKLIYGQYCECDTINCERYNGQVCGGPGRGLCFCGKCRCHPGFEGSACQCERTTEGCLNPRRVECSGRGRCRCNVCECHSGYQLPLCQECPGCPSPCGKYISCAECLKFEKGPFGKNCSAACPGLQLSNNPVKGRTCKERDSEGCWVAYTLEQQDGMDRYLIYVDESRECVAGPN
Mac-1/ICAM-1, sequence (P05107 23-769, other chains not shown): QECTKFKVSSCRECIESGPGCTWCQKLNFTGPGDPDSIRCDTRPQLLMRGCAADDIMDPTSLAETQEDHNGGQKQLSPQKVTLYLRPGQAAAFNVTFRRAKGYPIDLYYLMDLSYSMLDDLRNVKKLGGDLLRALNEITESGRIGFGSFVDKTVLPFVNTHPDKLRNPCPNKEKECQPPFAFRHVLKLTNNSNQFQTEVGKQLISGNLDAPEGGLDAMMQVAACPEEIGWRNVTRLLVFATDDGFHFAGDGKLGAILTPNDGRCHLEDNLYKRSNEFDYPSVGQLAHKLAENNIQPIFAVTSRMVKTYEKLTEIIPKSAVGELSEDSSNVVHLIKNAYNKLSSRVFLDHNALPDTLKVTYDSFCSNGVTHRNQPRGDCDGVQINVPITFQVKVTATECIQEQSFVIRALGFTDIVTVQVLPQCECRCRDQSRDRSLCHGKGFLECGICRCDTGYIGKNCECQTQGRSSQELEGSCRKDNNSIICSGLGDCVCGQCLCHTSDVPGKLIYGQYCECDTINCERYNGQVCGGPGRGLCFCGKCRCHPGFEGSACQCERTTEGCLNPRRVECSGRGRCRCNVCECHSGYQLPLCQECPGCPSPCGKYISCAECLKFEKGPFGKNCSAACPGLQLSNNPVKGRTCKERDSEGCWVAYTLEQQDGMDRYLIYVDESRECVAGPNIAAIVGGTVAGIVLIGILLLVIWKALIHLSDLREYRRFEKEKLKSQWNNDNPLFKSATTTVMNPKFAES

`Cc1nc(NC(=O)Cc2cccc(O)c2)sc1C(=O)N[C@@H](CNC(=O)c1cc(F)cc(F)c1)C(=O)O` [Example 1, (S)-3-(3,5-Difluoro-benzoylamino)-2-({2-[2-(3-hydroxy-phenyl)-acetylamino]-4-methyl-thiazole-5-carbonyl}-amino)-propionic acid]: the IC50 at sLFA-1/ICAM-1 stood at 17 nM. Regarding `Cc1nc(NC(=O)Cc2cccc(O)c2)sc1C(=O)N[C@@H](CNC(=O)c1cccs1)C(=O)O` [Example 2, (S)-2-({2-[2-(3-Hydroxy-phenyl)-acetylamino]-4-methyl-thiazole-5-carbonyl}-amino)-3-[(thiophene-2-carbonyl)-amino]-propionic acid], the IC50 on sLFA-1/ICAM-1 was determined as 4 nM; on Mac-1/ICAM-1, 58 nM.

With `O=C(Cc1cccc(O)c1)Nc1ncc(C(=O)N[C@@H](CNC(=O)c2cccs2)C(=O)O)s1` [Example 3, (S)-2-({2-[2-(3-Hydroxy-phenyl)-acetylamino]-thiazole-5-carbonyl}-amino)-3-[(thiophene-2-carbonyl)-amino]-propionic acid], the IC50 on sLFA-1/ICAM-1 is 85 nM; at Mac-1/ICAM-1 it was over 3000 nM.

Take `Cc1nc(NC(=O)Cc2cccc(O)c2)sc1C(=O)N[C@@H](CNC(=O)c1ccccc1)C(=O)O` [Example 4, (S)-3-Benzoylamino-2-([2-[2-(3-hydroxy-phenyl)-acetylamino]-4-methyl-thiazole-5-carbonyl]-amino)-propionic acid]: the IC50 at sLFA-1/ICAM-1 was 6 nM.

Regarding `Cc1nc(NC(=O)Cc2cccc(O)c2)sc1C(=O)N[C@@H](CNC(=O)c1cccc(O)c1)C(=O)O` [Example 5, (S)-3-(3-Hydroxy-benzoylamino)-2-({2-[2-(3-hydroxy-phenyl)-acetylamino]-4-methyl-thiazole-5-carbonyl}-amino)-propionic acid], the results for the IC50 on sLFA-1/ICAM-1 and on Mac-1/ICAM-1 were 2 nM and 300 nM, respectively. Regarding `Cc1nc(NC(=O)Cc2cccc(O)c2)sc1C(=O)N[C@@H](CNC(=O)c1cc(O)cc(O)c1)C(=O)O` [Example 6, (S)-3-(3,5-Dihydroxy-benzoylamino)-2-({2-[2-(3-hydroxy-phenyl)-acetylamino]-4-methyl-thiazole-5-carbonyl}-amino)-propionic acid], the IC50 at sLFA-1/ICAM-1 stood at 3 nM. Turning to `Cc1nc(NC(=O)Cc2cccc(O)c2)sc1C(=O)N[C@@H](CNC(=O)c1ccsc1)C(=O)O` [Example 7, (S)-2-({2-[2-(3-Hydroxy-phenyl)-acetylamino]-4-methyl-thiazole-5-carbonyl}-amino)-3-[(thiophene-3-carbonyl)-amino]-propionic acid], the IC50 on sLFA-1/ICAM-1 was 5 nM; on Mac-1/ICAM-1 it was 30 nM. For `O=C(Cc1cccc(O)c1)Nc1nc(Cl)c(C(=O)N[C@@H](CNC(=O)c2cccs2)C(=O)O)s1` [Example 8, (S)-2-({4-Chloro-2-[2-(3-hydroxy-phenyl)-acetylamino]-thiazole-5-carbonyl}-amino)-3-[(thiophene-2-carbonyl)-amino]-propionic acid] the same measures were 7 nM and 32 nM. On to `Cc1nc(NC(=O)CCc2cccc(O)c2)sc1C(=O)N[C@@H](CNC(=O)c1cccs1)C(=O)O` [Example 11, (S)-2-([2-[3-(3-Hydroxy-phenyl)-propionylamino]-4-methyl-thiazole-5-carbonyl]-amino)-3-[(thiophene-2-carbonyl)-amino]-propionic acid], for which the IC50 on sLFA-1/ICAM-1 came out at 90 nM. For `O=C(Cc1cccc2[nH]ncc12)Nc1nc(C(F)(F)F)c(C(=O)N[C@@H](CNC(=O)c2cccs2)C(=O)O)s1` [Example 16, (S)-2-{[2-(2-1H-Indazol-4-yl-acetylamino)-4-trifluoromethyl-thiazole-5-carbonyl]-amino}-3-[(thiophene-2-carbonyl)-amino]-propionic acid], the IC50 on sLFA-1/ICAM-1 was 17 nM. Still for that read-out and setting: as for `Cc1cc(C(=O)NC(C)c2cccc(O)c2)sc1C(=O)N[C@@H](CNC(=O)c1cccs1)C(=O)O` (stereo partly drawn) [Example 37, (S)-2-({5-[1-(3-hydroxy-phenyl)-ethylcarbamoyl]-3-methyl-thiophen-2-carbonyl}-amino)-3-[(thiophene-2-carbonyl)-amino]-propionic acid], the figure is 27 nM; as for `COc1cc(C(=O)NC[C@H](NC(=O)c2sc(C(=O)NCc3cccc(O)c3)cc2C)C(=O)O)nc(OC)n1` [Example 43, (S)-3-[(2,6-dimethoxy-pyrimidine-4-carbonyl)-amino]-2-{[5-(3-hydroxy-benzylcarbamoyl)-3-methyl-thiophene-2-carbonyl]-amino}-propionic acid], over 3000 nM. The same measure, in the same setting: as for `Cc1cc(C(=O)NCc2cccc(O)c2)sc1C(=O)N[C@@H](CNC(=O)c1cccc2[nH]ncc12)C(=O)O` [Example 44, (S)-2-{[5-(3-hydroxy-benzylcarbamoyl)-3-methyl-thiophene-2-carbonyl]-amino}-3-[(1H-indazole-4-carbonyl)-amino]-propionic acid], the figure is 17 nM; as for `Cc1cc(C(=O)NCc2cccc(O)c2)sc1C(=O)N[C@@H](CNC(=O)c1cnc(O)cn1)C(=O)O` [Example 45, (S)-2-{[5-(3-hydroxy-benzylcarbamoyl)-3-methyl-thiophene-2-carbonyl]-amino}-3-[(5-hydroxy-pyrazine-2-carbonyl)-amino]-propionic acid], 763 nM. Still for that read-out and setting: as for `Cc1cc(C(=O)NCc2cccc(O)c2)sc1C(=O)N[C@@H](CNC(=O)c1cccc2[nH]cnc12)C(=O)O` [Example 46, (S)-3-[(1H-benzoimidazole-4-carbonyl)-amino]-2-{[5-(3-hydroxy-benzylcarbamoyl)-3-methyl-thiophene-2-carbonyl]-amino}-propionic acid], the figure is 51 nM; as for `Cc1cc(C(=O)NCc2cccc(O)c2)sc1C(=O)N[C@@H](CNC(=O)c1cccc(C(=O)O)c1)C(=O)O` [Example 47, (S)-3-[(benzoic acid-3-carbonyl)-amino]-2-{[5-(3-hydroxy-benzylcarbamoyl)-3-methyl-thiophene-2-carbonyl]-amino}-propionic acid], 289 nM; as for `Cc1cc(C(=O)NCCc2cccc(O)c2)sc1C(=O)N[C@@H](CNC(=O)c1cccs1)C(=O)O` [Example 48, (S)-2-({5-[2-(3-hydroxy-phenyl)ethyl-carbamoyl]-3-methyl-thiophen-2-carbonyl}-amino)-3-[(thiophene-2-carbonyl)-amino]-propionic acid], 85 nM. With `O=C(NC[C@H](NC(=O)c1sc(C(=O)NCc2cccc(O)c2)cc1-c1ccccc1)C(=O)O)c1cccs1` [Example 53, (S)-2-{[5-(3-Hydroxy-benzylcarbamoyl)-3-phenyl-thiophene-2-carbonyl]-amino}-3-[(thiophene-2-carbonyl)-amino]-propionic acid], the IC50 on sLFA-1/ICAM-1 worked out at 1550 nM. The same measure, in the same setting: as for `N#Cc1cc(C(=O)NCc2cccc(O)c2)sc1C(=O)N[C@@H](CNC(=O)c1cccs1)C(=O)O` [Example 65, (S)-2-{[3-Cyano-5-(3-hydroxy-benzylcarbamoyl)-thiophene-2-carbonyl]-amino}-3-[(thiophene-2-carbonyl)-amino]-propionic acid], the figure is 3 nM; as for `N#Cc1cc(C(=O)NCc2cccc3[nH]ncc23)sc1C(=O)N[C@@H](CNC(=O)c1cc(O)cc(O)c1)C(=O)O` [Example 66, (S)-2-({3-Cyano-5-[(1H-indazol-4-ylmethyl)-carbamoyl]-thiophene-2-carbonyl}-amino)-3-(3,5-dihydroxy-benzoylamino)-propionic acid], 41 nM.
